# Data reported in ChEMBL document CHEMBL1127803 (J Med Chem, 1994).
# Where a SMILES comes first, the peptide text is derived from it. [ ]: non-standard residue; d: D form. The star is where a group is joined. Tyr(Nα,Nα-allyl2) = C=CCN(CC=C)[C@@H](Cc1ccc(O)cc1)C(=O)*; Aib = CC(C)(N)C(=O)O
# Tests used:
# Mu-type opioid receptor [1] = target: Mu-type opioid receptor (Cavia porcellus, UniProt P97266); experiment: Tested for agonist activity against mu opioid receptor in guinea pig ileum; type: functional, tissue-based
# Mu-type opioid receptor (Cavia porcellus, UniProt P97266), sequence (P97266 whole entry): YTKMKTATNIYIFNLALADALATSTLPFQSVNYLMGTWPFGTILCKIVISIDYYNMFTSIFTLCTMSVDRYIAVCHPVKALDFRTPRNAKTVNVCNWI
# Mu-type opioid receptor [2] = target: Mu-type opioid receptor (Rattus norvegicus, UniProt P33535); experiment: Evaluated for inhibition of [3H]DAMGO binding from mu receptor in rat brain membranes; type: cell membranes
# Mu-type opioid receptor (Rattus norvegicus, UniProt P33535), sequence (P33535 whole entry): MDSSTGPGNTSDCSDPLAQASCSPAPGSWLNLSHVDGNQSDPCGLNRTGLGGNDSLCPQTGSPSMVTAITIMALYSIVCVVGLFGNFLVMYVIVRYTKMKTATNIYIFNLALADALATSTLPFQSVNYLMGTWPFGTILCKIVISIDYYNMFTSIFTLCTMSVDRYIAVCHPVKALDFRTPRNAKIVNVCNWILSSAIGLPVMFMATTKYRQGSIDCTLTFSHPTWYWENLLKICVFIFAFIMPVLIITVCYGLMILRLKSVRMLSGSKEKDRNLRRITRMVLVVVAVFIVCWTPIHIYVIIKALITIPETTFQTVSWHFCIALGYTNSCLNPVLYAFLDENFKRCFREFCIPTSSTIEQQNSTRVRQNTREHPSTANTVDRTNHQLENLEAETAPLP
# [3] = target: T1, Delta-type opioid receptor (Mus musculus, UniProt P32300); experiment: Tested for inhibition of binding of [3H]DADLE to mouse brain membranes depleted of mu binding sites by pretreatment with irreversible ligand BIT for delta opioid receptor; design: species or system Membrane
# T1 sequence (P32300 whole entry): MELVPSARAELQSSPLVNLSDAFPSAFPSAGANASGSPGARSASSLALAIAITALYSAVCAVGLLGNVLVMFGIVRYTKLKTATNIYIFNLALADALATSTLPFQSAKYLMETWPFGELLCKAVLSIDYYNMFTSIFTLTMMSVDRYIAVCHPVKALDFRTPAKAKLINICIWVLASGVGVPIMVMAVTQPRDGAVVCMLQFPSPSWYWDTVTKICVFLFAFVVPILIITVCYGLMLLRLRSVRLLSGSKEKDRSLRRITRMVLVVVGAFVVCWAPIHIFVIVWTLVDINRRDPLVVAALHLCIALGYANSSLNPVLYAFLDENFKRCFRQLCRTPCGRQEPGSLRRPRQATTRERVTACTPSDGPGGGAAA
# [4] = target: T1, Delta-type opioid receptor; experiment: Tested for agonist activity against delta opioid receptor mouse vas deferens; type: functional, tissue-based
SMILES,IC50 (Mu-type opioid receptor [1]) [nM],IC50 (Mu-type opioid receptor [2]) [nM],IC50 [3] [nM],other results
"C=CCN1C[C@@H](C)N(C(c2ccc(C(=O)N(CC)CC)cc2)c2cccc(OC)c2)C[C@@H]1C (single isomer, unassigned)",1520,9140,–,–
"C=CCN1CC(C)N([C@H](c2ccc(C(=O)N(CC)CC)cc2)c2cccc(OC)c2)CC1C (single isomer, unassigned) [SNC-80]",–,9370,–,–
C=CCN1C[C@@H](C)N([C@H](c2ccc(C(=O)N(CC)CC)cc2)c2cccc(O)c2)C[C@@H]1C,–,–,9.58,–
C=CCN1C[C@H](C)N([C@@H](c2ccc(C(=O)N(CC)CC)cc2)c2cccc(OC)c2)C[C@H]1C,5460,2470,–,–
C=CCN1C[C@@H](C)N([C@@H](c2ccc(C(=O)N(CC)CC)cc2)c2cccc(O)c2)C[C@@H]1C,–,–,0.49,–
"C=CCN1C[C@H](C)N(C(c2ccc(C(=O)N(CC)CC)cc2)c2cccc(O)c2)C[C@H]1C (single isomer, unassigned; (+)-1)",–,–,0.31,–
C=CCN1CC(C)N(C(c2ccc(C(=O)N(CC)CC)cc2)c2cccc(O)c2)CC1C (racemic),143,–,0.92,IC50 [4]: 0.2 nM
C=CCN1C[C@H](C)N([C@H](c2ccc(C(=O)N(CC)CC)cc2)c2cccc(OC)c2)C[C@H]1C [SNC-80],–,5710,–,–
"C=CCN1C[C@H](C)N(C(c2ccc(C(=O)N(CC)CC)cc2)c2cccc(O)c2)C[C@H]1C (single isomer, unassigned; (+)-10)",–,–,5.96,–
CC(C)[C@H](NC(=O)[C@H](CCC(=O)O)NC(=O)[C@H](Cc1ccccc1)NC(=O)[C@@H](C)NC(=O)[C@@H](N)Cc1ccc(O)cc1)C(=O)N[C@H](C(=O)NCC(=O)O)C(C)C [DELTORPHIN],15000,–,–,–
"C=CCN(CC=C)[C@@H](Cc1ccc(O)cc1)C(=O)NC(C)(C)C(=O)NC(C)(C)C(=O)N[C@@H](Cc1ccccc1)C(=O)N[C@@H](CC(C)C)C(=O)O.C=CCN1C[C@H](C)N([C@@H](c2ccc(C(=O)N(CC)CC)cc2)c2cccc(OC)c2)C[C@H]1C ({Tyr(Nα,Nα-allyl2)}-[Aib][Aib]FL-OH)",–,–,–,IC50 [4]: 3250 nM
